{"source": "patent US8207403B2", "about": "“EPSP synthase with high glyphosate resistance and its encoded sequence” (Biotechnology Research Institute The Chinese Academy of …, priority 2007, dated 2012)", "key": {"[1]": {"test_system": "GR-79 EPSP synthase (5-enolpyruvylshikinate-3-phosphate synthase), SEQ ID NO:1", "test": "EPSP synthase enzyme activity and kinetic parameters (inorganic phosphorus release, PEP + S3P)", "assay_type": "biochemical", "procedure": "(§1) Standard curve of inorganic phosphorus: 10 mM inorganic phosphorus was diluted at 1:10, and 0, 1, 2, 3 . . . 20 μl was taken into 1.5 ml Eppendorf tube and milli-Q purified water was added up to 100 μl with mixing, 0.8 ml MAT solution was added with mixing, and then 100 μl 34% SC solution was quickly added with mixing after 3 min, kept at room temperature for 20 min and then the OD660 value was determined. Repeat the operations three times as above. The standard curve of inorganic phosphorus was achieved using the concentration of inorganic phosphorus as abscissa and the OD660 value as ordinate.\n(§2) 1) Enzyme activity test: The crude protein extracted with enzyme was quantified using Coomassie Blue G-250 method (Bradford, 1976). The follow solutions were added into 1.5 ml Eppendorf tube on the ice: 2 μl of 10 mM PEP solution, 2 μl of 10 mM S3P solution, 2 μl of 0.5M HEPES solution, 2 μl of 1 mM (NH4)6MO7O24.4H2O solution and 12 μl of milli-Q purified water with mixing, bathed at 28° C. for 5 min and 1 μl crude enzyme solution was added into each, tube at intervals and timing, 200 μl MAT solution was added after 2 min at 2s intervals again, color development was performed for 3 min, and then 20 μl of 34% SC solution was added at 2s intervals and quickly mixed well, the color was developed for 20 min at room temperature and finally the OD660 value was determined. […]"}, "[2]": {"test_system": "E. coli ER2799 (EPSP synthase defective) carrying pACYCGR-79 (GR-79-ER)", "test": "Glyphosate tolerance test, strain GR-79-ER", "assay_type": "cell-based", "conditions": "M9 liquid medium, 37° C., 36 h, OD600", "procedure": "FIG. 1 is a graph of analysis of glyphosate resistance of clone GR-79, wherein: GR-79-ER strain was a strain with glyphosate resistance obtained by cutting the total DNA of soil with enzyme partly, ligating the vector pACYC 184 and introducing into EPSP synthase defective E. coli ER2799 strain (NEB Company).\n(§3) The three strains were respectively inoculated into the limited medium M9 with the glyphosate concentration of 0, 20, 50, 80, 100, 120, 150, 200, 250, 300 mM, shaking cultured at 37° C. for 36 h, the absorbance values were determined at OD600 and the figure was plotted with the values.\n(§4) E. coli ER2799 (containing new cloned pACYCGR-79 plasmid) was inoculated into M9 liquid medium (Cm^r) with 0-200 mm glyphosate, shaking cultured at 37° C. for 36 h, and the OD600 value of culture was determined. E. coli ER2799 with plasmid without insert was used as negative control."}, "[3]": {"test_system": "transgenic tobacco with GR-79 EPSP synthase gene", "test": "Glyphosate resistance gradient assay of transgenic tobacco", "assay_type": "in vivo", "conditions": "greenhouse", "text": "The plant expression vector of EPSP synthase gene with high glyphosate resistance was constructed and transgenic tobaccos were constructed by transformation using leaf disc cocultivation.\n(8) The plants were removed when the root systems were large, the solid medium attached was washed off with sterile water, and the plants were transferred into the soil, covered with a glass cover for several days at the beginning days, and the cover was removed after the plants were robust, and then the plants were transferred to the solid medium with 10 mM glyphosate to screen the plant strains with glyphosate resistance;"}, "[4]": {"test_system": "E. coli ER2799 (EPSP synthase defective) with EPSP synthase gene from Agrobacterium sp. cp4 (CP4-ER)", "test": "Glyphosate tolerance test, positive control strain CP4-ER", "assay_type": "cell-based", "conditions": "M9 liquid medium, 37° C., 36 h, OD600", "procedure": "CP4-ER strain was a strain with glyphosate resistance obtained by ligating the EPSP synthase gene from Agrobacterium sp. cp4 to the vector pACYC 184 and introducing into EPSP synthase defective E. coli ER2799 strain (NEB Company). It was used as a positive control in the figure.\nas §3, §4"}, "GR-79 EPSP": {"target": "GR-79 EPSP (uncultured soil bacterium (soil metagenome), UniProt A5Y5A5)", "sequence (A5Y5A5 entry or part of it)": "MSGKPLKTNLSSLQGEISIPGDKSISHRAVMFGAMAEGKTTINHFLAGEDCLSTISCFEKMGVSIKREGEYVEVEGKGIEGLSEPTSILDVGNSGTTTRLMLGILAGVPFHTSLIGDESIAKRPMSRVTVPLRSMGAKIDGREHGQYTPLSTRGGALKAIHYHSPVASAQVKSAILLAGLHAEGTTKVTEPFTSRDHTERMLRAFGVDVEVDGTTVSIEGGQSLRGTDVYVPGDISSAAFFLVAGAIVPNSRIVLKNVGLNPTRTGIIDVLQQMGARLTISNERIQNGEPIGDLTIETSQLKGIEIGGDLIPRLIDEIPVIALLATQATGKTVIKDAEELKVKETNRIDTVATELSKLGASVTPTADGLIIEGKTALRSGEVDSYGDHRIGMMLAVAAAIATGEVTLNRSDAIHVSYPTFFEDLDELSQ", "test": "Enzyme activity test of EPSP synthase (inorganic phosphorus release)", "assay_type": "biochemical", "conditions": "crude enzyme, PEP and S3P substrates, 28° C., OD660", "procedure": "as §1, §2"}}}
{"molecule": "C=C(OP(=O)(O)O)C(=O)O", "note": "[PEP]", "values": [{"measurement": "Km", "setting": "[1]; S3P maintained at 1 mM, PEP 0.05-1.0 mM, Eadie-Hofstee", "result": "79.2 ± 32", "unit": "µM"}]}
{"molecule": "O=C(O)CNCP(=O)(O)O", "note": "[glyphosate]", "values": [{"measurement": "glyphosate resistance (highest glyphosate concentration allowing growth)", "setting": "[2]", "result": 250, "unit": "mM"}, {"measurement": "growth of transgenic plants in medium with 20 mM glyphosate", "setting": "[3]", "result": "could grow well"}, {"measurement": "glyphosate resistance (highest glyphosate concentration allowing growth)", "setting": "[4]", "result": 200, "unit": "mM"}, {"measurement": "Ki/Km", "setting": "[1]; Ki (glyphosate) / Km (PEP)", "result": 2.16}]}
{"molecule": "GR-79 EPSP: new type I EPSP synthase with high glyphosate resistance, 445 amino acids, SEQ ID NO:1 (protein, From a mixture of organisms) MSHSTSRSPWSKATEYHEALVTPTSNKINGEIFVPGSKSYTNRALIIAALAEGTSTLKGILKSDDSYWCIDALRRLGIKIEVAEETVTIHGCGGKWPVQSAELFIGAAGTIARFLPGALAVAQQGEWIVDGVPQLRERPLKPLVDALTQLGGRIEYLTEHPGLPLRVKGAGLSGQHVRVPGNVSSQFLSGLLIASPYASEAVSIEVINGLVQPSYIAITIQLMREFGAKVEHNEDYSLFKVYPTGYQGRDTILEADASTACYFLSLAALTGGTIQVKNVGYHSYQPDARFIDVLEQMGCEVIKNESFLEVTGPTRLKGGFEVDMKPMSDQALTIGALAPFADAPIRVTNVAHIRAHESDRIAVICSSLQQMGVQVEEREDGFTIYPGQPVGTTLNPHDDHRNAMVFGLLGVKVPHIRIVDPGCVSKTCPAYFEELQKFGIHVEYN", "values": [{"measurement": "enzyme activity", "setting": "GR-79 EPSP", "result": 10.477, "unit": "U/mg"}]}
